One data set in a line: log P. The data set is classed as physicochemical.
The next data set concerns TC32 cells. Put plainly: Potency IC50 in TC32 cells and selectivity. The data set is classed as cell-based. To be noted: Homo sapiens, TC-32, Table 2, read-out: IC50 TC32. How it is done: (§1) Exemplary compounds of the presently-disclosed subject matter were assessed for activity, including clearance, potency, and selectivity. Results from studies are compiled in Tables 2-4.
(§2) Desirable clearance was identified at lower values of mL hr^−1kg^−1 (e.g., about ≤10 mL hr^−1 kg^−1), desirable potency was identified at lower values of IC50 (e.g., about ≤10 nM in TC32 cells), and desired selectivity was identified at higher ratios of IC50 in PC3/IC50 in TC32 (e.g. about >10).

In the next data set the test system is PC3. Put plainly: IC50 in PC3 cells. The data set is classed as cell-based. To be noted: Homo sapiens, PC-3, read-out: IC50 PC2, Table 2; head prints PC2, text PC3. Here is the method: as §1, §2

This is an account of results in US20260297121A1, “MITHRAMYCIN (MTM) 2’ OXIMES” (University of Kentucky Research Foundation, priority 2023, published 2026).

Structures are written as SMILES.

For orientation: logP means the decadic logarithm of the partition coefficient of the neutral form, usually between octanol and water. A higher logP goes with higher lipophilicity. In general, IC50 refers to the concentration needed to halve the response being measured. `COc1cc2cc(C(=O)NCCON=C([C@@H](O)[C@@H](C)O)[C@@H](OC)[C@@H]3Cc4cc5cc(O[C@H]6C[C@@H](O[C@H]7C[C@@H](O)[C@H](O)[C@@H](C)O7)[C@H](O)[C@@H](C)O6)c(C)c(O)c5c(O)c4C(=O)[C@H]3O[C@H]3C[C@@H](O[C@H]4C[C@@H](O[C@H]5C[C@](C)(O)[C@H](O)[C@@H](C)O5)[C@@H](O)[C@@H](C)O4)[C@H](O)[C@@H](C)O3)[nH]c2cc1OC` [YL-B158]: in “log P” (Table 2), the logP came out at 1.28. Also, the IC50 in the data set on TC32 cells is 35.6 nM; in the data set on PC3, 300 nM.
For `COC(C(=NOCC(=O)Nc1cccc2cnccc12)C(O)C(C)O)C1Cc2cc3cc(OC4CC(OC5CC(O)C(O)C(C)O5)C(O)C(C)O4)c(C)c(O)c3c(O)c2C(=O)C1OC1CC(OC2CC(OC3CC(C)(O)C(O)C(C)O3)C(O)C(C)O2)C(O)C(C)O1` (centres unmarked) [YL-B160], in the data set “log P” (Table 2), the lipophilicity (logP) was 1.3. For the same compound, the IC50 in the data set on TC32 cells came out at 86.1 nM; in the data set with PC3, 1130 nM.
The matching figures for `CO[C@H](C(=NOCCNC(=O)c1nnc2nc(C)cc(C)n12)[C@@H](O)[C@@H](C)O)[C@@H]1Cc2cc3cc(O[C@H]4C[C@@H](O[C@H]5C[C@@H](O)[C@H](O)[C@@H](C)O5)[C@H](O)[C@@H](C)O4)c(C)c(O)c3c(O)c2C(=O)[C@H]1O[C@H]1C[C@@H](O[C@H]2C[C@@H](O[C@H]3C[C@](C)(O)[C@H](O)[C@@H](C)O3)[C@@H](O)[C@@H](C)O2)[C@H](O)[C@@H](C)O1` [YL-B162]: -0.56, 2840 nM and 3000 nM.
With `COc1ccc2[nH]c(C(=O)NCCON=C([C@@H](O)[C@@H](C)O)[C@@H](OC)[C@@H]3Cc4cc5cc(O[C@H]6C[C@@H](O[C@H]7C[C@@H](O)[C@H](O)[C@@H](C)O7)[C@H](O)[C@@H](C)O6)c(C)c(O)c5c(O)c4C(=O)[C@H]3O[C@H]3C[C@@H](O[C@H]4C[C@@H](O[C@H]5C[C@](C)(O)[C@H](O)[C@@H](C)O5)[C@@H](O)[C@@H](C)O4)[C@H](O)[C@@H](C)O3)cc2c1` [YL-B166], in the data set “log P” (Table 2), the logP was determined as 1.56. Moreover, the results for the IC50 with TC32 cells and with PC3 were 2.33 nM and 32.3 nM, respectively.
The matching figures for `CO[C@H](C(=NOCCNC(=O)c1cc2cc(Cl)cc(Cl)c2[nH]1)[C@@H](O)[C@@H](C)O)[C@@H]1Cc2cc3cc(O[C@H]4C[C@@H](O[C@H]5C[C@@H](O)[C@H](O)[C@@H](C)O5)[C@H](O)[C@@H](C)O4)c(C)c(O)c3c(O)c2C(=O)[C@H]1O[C@H]1C[C@@H](O[C@H]2C[C@@H](O[C@H]3C[C@](C)(O)[C@H](O)[C@@H](C)O3)[C@@H](O)[C@@H](C)O2)[C@H](O)[C@@H](C)O1` [YL-B167]: 2.83, 15.1 nM and 48.4 nM.
The matching figures for `COC(C(=NOCCNC(=O)c1cc2cc(O)ccc2[nH]1)C(O)C(C)O)C1Cc2cc3cc(OC4CC(OC5CC(O)C(O)C(C)O5)C(O)C(C)O4)c(C)c(O)c3c(O)c2C(=O)C1OC1CC(OC2CC(OC3CC(C)(O)C(O)C(C)O3)C(O)C(C)O2)C(O)C(C)O1` (centres unmarked) [YL-B170]: 1.02, 70.7 nM and 365 nM.
For `COC(C(=NOCCNC(=O)c1cc2cc(C(F)(F)F)ccc2[nH]1)C(O)C(C)O)C1Cc2cc3cc(OC4CC(OC5CC(O)C(O)C(C)O5)C(O)C(C)O4)c(C)c(O)c3c(O)c2C(=O)C1OC1CC(OC2CC(OC3CC(C)(O)C(O)C(C)O3)C(O)C(C)O2)C(O)C(C)O1` (centres unmarked) [YL-B175] the same measures were 2.54, 1.2 nM and 1.5 nM.
`COC(C(=NOCCNC(=O)c1cc2c(=O)n(C)c(=O)n(C)c2[nH]1)C(O)C(C)O)C1Cc2cc3cc(OC4CC(OC5CC(O)C(O)C(C)O5)C(O)C(C)O4)c(C)c(O)c3c(O)c2C(=O)C1OC1CC(OC2CC(OC3CC(C)(O)C(O)C(C)O3)C(O)C(C)O2)C(O)C(C)O1` (centres unmarked) [YL-B179] came in with a logP in the data set “log P” (Table 2) of -0.02. For the same compound, the IC50 stood at 679 nM in the data set with TC32 cells and 3000 nM with PC3.
For `CO[C@H](C(=NOCCNC(=O)c1cc2cc(-c3cnn(C)c3)ccc2[nH]1)[C@@H](O)[C@@H](C)O)[C@@H]1Cc2cc3cc(O[C@H]4C[C@@H](O[C@H]5C[C@@H](O)[C@H](O)[C@@H](C)O5)[C@H](O)[C@@H](C)O4)c(C)c(O)c3c(O)c2C(=O)[C@H]1O[C@H]1C[C@@H](O[C@H]2C[C@@H](O[C@H]3C[C@](C)(O)[C@H](O)[C@@H](C)O3)[C@@H](O)[C@@H](C)O2)[C@H](O)[C@@H](C)O1` [YL-C20] the same measures were 2.1, 69.8 nM and 1020 nM.
For orientation: log P means a log measure of how a compound divides between an organic and an aqueous phase. A low value points to lower lipophilicity. On to `CO[C@H](C(=NOCC(=O)N[C@@H](Cc1c[nH]c2ccccc12)C(=O)Nc1ccc2scnc2c1)[C@@H](O)[C@@H](C)O)[C@@H]1Cc2cc3cc(O[C@H]4C[C@@H](O[C@H]5C[C@@H](O)[C@H](O)[C@@H](C)O5)[C@H](O)[C@@H](C)O4)c(C)c(O)c3c(O)c2C(=O)[C@H]1O[C@H]1C[C@@H](O[C@H]2C[C@@H](O[C@H]3C[C@](C)(O)[C@H](O)[C@@H](C)O3)[C@@H](O)[C@@H](C)O2)[C@H](O)[C@@H](C)O1` [YL-C39], for which the “log P” value in “log P” (Table 2) came out at 2.56.
The same measure, in the same setting: as for `CO[C@H](C(=NOC[C@@H](Cc1c[nH]c2ccccc12)NC(=O)c1ccc2scnc2c1)[C@@H](O)[C@@H](C)O)[C@@H]1Cc2cc3cc(O[C@H]4C[C@@H](O[C@H]5C[C@@H](O)[C@H](O)[C@@H](C)O5)[C@H](O)[C@@H](C)O4)c(C)c(O)c3c(O)c2C(=O)[C@H]1O[C@H]1C[C@@H](O[C@H]2C[C@@H](O[C@H]3C[C@](C)(O)[C@H](O)[C@@H](C)O3)[C@@H](O)[C@@H](C)O2)[C@H](O)[C@@H](C)O1` [YL-C53], the figure is 3.26; as for `COC(C(=NOCC(Cc1c[nH]c2ccccc12)NC(=O)c1cc2cc(Cl)ccc2[nH]1)C(O)C(C)O)C1Cc2cc3cc(OC4CC(OC5CC(O)C(O)C(C)O5)C(O)C(C)O4)c(C)c(O)c3c(O)c2C(=O)C1OC1CC(OC2CC(OC3CC(C)(O)C(O)C(C)O3)C(O)C(C)O2)C(O)C(C)O1` (centres unmarked) [YL-C54], 4.34; as for `COC(C(=NOCC(Cc1c[nH]c2ccccc12)NC(=O)c1ccc2scnc2c1)C(O)C(C)O)C1Cc2cc3cc(OC4CC(OC5CC(O)C(O)C(C)O5)C(O)C(C)O4)c(C)c(O)c3c(O)c2C(=O)C1OC1CC(OC2CC(OC3CC(C)(O)C(O)C(C)O3)C(O)C(C)O2)C(O)C(C)O1` (centres unmarked) [YL-C55], 3.26.
As for `CO[C@H](C(=NOCCNC(=O)c1c(-c2ccc(Cl)cc2)c2cc(Cl)ccc2n1C)[C@@H](O)[C@@H](C)O)[C@@H]1Cc2cc3cc(O[C@H]4C[C@@H](O[C@H]5C[C@@H](O)[C@H](O)[C@@H](C)O5)[C@H](O)[C@@H](C)O4)c(C)c(O)c3c(O)c2C(=O)[C@H]1O[C@H]1C[C@@H](O[C@H]2C[C@@H](O[C@H]3C[C@](C)(O)[C@H](O)[C@@H](C)O3)[C@@H](O)[C@@H](C)O2)[C@H](O)[C@@H](C)O1` [YL-C98], the “log P” value in the data set “log P” (Table 2) is on record as 4.6.
In the case of `COC(C(=NOCCNC(=O)c1c(-c2ccc(Cl)cc2)c2cc(Cl)ccc2n1CC(C)C)C(O)C(C)O)C1Cc2cc3cc(OC4CC(OC5CC(O)C(O)C(C)O5)C(O)C(C)O4)c(C)c(O)c3c(O)c2C(=O)C1OC1CC(OC2CC(OC3CC(C)(O)C(O)C(C)O3)C(O)C(C)O2)C(O)C(C)O1` (centres unmarked) [YL-C100], in “log P” (Table 2), the “log P” value is 6.21.
As to `COC(C(=NOCCNC(=O)c1[nH]c2ccc(Cl)cc2c1-c1ccc(F)c(Cl)c1)C(O)C(C)O)C1Cc2cc3cc(OC4CC(OC5CC(O)C(O)C(C)O5)C(O)C(C)O4)c(C)c(O)c3c(O)c2C(=O)C1OC1CC(OC2CC(OC3CC(C)(O)C(O)C(C)O3)C(O)C(C)O2)C(O)C(C)O1` (centres unmarked) [YL-C116], the lipophilicity (log P) in the data set “log P” (Table 2) and in the data set “log P” (Table 3) was 4.19 each time.
